The first test concerns KM mice. The test is described as follows: Test for drug-induced disappearance of righting reflex in mice. It is filed as in vivo. Conditions: 30 mg/kg, single rapid bolus via tail vein. A digest of the protocol: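 Latency to, and duration of, righting reflex loss were recorded after one fast tail-vein bolus. Animals: randomized female KM mice weighing 18–25 g.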
`CCN(CC)CCSc1nnc2n1-c1ccc(Cl)cc1C(c1ccccc1F)=N[C@H]2CCC(=O)OC` [Compound 54, methyl (S)-3-(8-chloro-1-((2-(diethylamino)ethyl)thio)-6-(2-fluorophenyl)-4H-benzo[f][1,2,4]triazolo[4,3-a][1,4]diazepin-4-yl)propionate]: the Duration was 6.83 min and the Latency worked out at 0.24 min.

For the molecule `COC(=O)CC[C@@H]1N=C(c2ccccc2Cl)c2cc([N+](=O)[O-])ccc2-n2c(SCN3CCOCC3)nnc21` [Compound 101, methyl (S)-3-(8-nitro-6-(2-chlorophenyl)-1-((morpholinomethyl)thio)-4H-benzo[f][1,2,4]triazolo[4,3-a][1,4]diazepin-4-yl)propionate], the Duration was found to be 12.05 min and the Latency worked out at 0.85 min.

`CCSc1nnc2n1-c1ccc(Br)cc1C(c1ccccc1Cl)=N[C@H]2CCC(=O)OC` [Compound 27, methyl (S)-3-(8-bromo-6-(2-chlorophenyl)-1-(ethylthio)-4H-benzo[f][1,2,4]triazolo[4,3-a][1,4]diazepin-4-yl)propionate] came in with a Duration of 5.93 min and a Latency of 0.35 min.

“methyl (S)-3-(8-chloro-6-(2-chlorophenyl)-1-(2-((4-methylpiperidin-2-carbonyl)ethyl)thio)-4H-benzo[f][1,2,4]triazolo[4,3-a][1,4]diazepin-4-yl)propionate [Compound 136]” returned a Duration of 17.5 min and a Latency of 0.36 min.

Take `COC(=O)CC[C@@H]1N=C(c2ccccc2Cl)c2cc(Br)ccc2-n2c(SCC3CC3)nnc21` [Compound 76, methyl (S)-3-(8-bromo-6-(2-chlorophenyl)-1-((cyclopropylmethyl)thio)-4H-benzo[f][1,2,4]triazolo[4,3-a][1,4]diazepin-4-yl)propionate]: the Duration was found to be 5.65 min and the Latency is on record as 0.76 min.

Regarding `COC(=O)CC[C@@H]1N=C(c2ccccc2Cl)c2cc(Cl)ccc2-n2c(SCCN3CCCCC3)nnc21` [Compound 122, methyl (S)-3-(8-chloro-6-(2-chlorophenyl)-1-(2-((piperidin-1-yl)ethyl)thio)-4H-benzo[f][1,2,4]triazolo[4,3-a][1,4]diazepin-4-yl)propionate], the Duration was found to be 28.06 min and the Latency worked out at 0.30 min.

Regarding `COC(=O)CC[C@@H]1N=C(c2ccccc2Cl)c2cc(Br)ccc2-n2c(SCCCN(C)C)nnc21` [Compound 88, methyl (S)-3-(8-bromo-6-(2-chlorophenyl)-1-((3-(dimethylamino)propyl)thio)-4H-benzo[f][1,2,4]triazolo[4,3-a][1,4]diazepin-4-yl)propionate], the Duration turned out to be 15.82 min and the Latency worked out at 0.53 min.

Molecule `COC(=O)CC[C@@H]1N=C(c2ccccc2F)c2cc([N+](=O)[O-])ccc2-n2c(SCCN)nnc21` [Compound 22, methyl (S)-3-(8-nitro-6-(2-fluorophenyl)-1-((2-aminoethyl)thio)-4H-benzo[f][1,2,4]triazolo[4,3-a][1,4]diazepin-4-yl)propionate] showed a Duration of 6.53 min and a Latency of 0.58 min.

`COC(=O)CC[C@@H]1N=C(c2ccccc2)c2ccccc2-n2c(S)nnc21` [Compound 5, methyl (S)-3-(6-phenyl-1-mercapto-4H-benzo[f][1,2,4]triazolo[4,3-a][1,4]diazepin-4-yl)propionate] returned a Duration of 13.27 min and a Latency of 1.11 min.

Staying with this test, now noted: 60 mg/kg, single rapid bolus via tail vein.
For `COC(=O)CC[C@@H]1N=C(c2ccccc2F)c2cc([N+](=O)[O-])ccc2-n2c(SCCN3CCN(C)CC3)nnc21` [Compound 62, methyl (S)-3-(8-nitro-6-(2-fluorophenyl)-1-((2-(4-methylpiperazin-1-yl)ethyl)thio)-4H-benzo[f][1,2,4]triazolo[4,3-a][1,4]diazepin-4-yl)propionate], the Duration is on record as 10.05 min and the Latency is recorded as 0.86 min.
